Here are results for three molecules from article PMC4621912, “Anticancer activity of MPT0G157, a derivative of indolylbenzenesulfonamide, inhibits tumor growth and angiogenesis” (Oncotarget, 2015).

Where two headings read alike, the source gives them in different places. Some results are limits rather than exact numbers.

For one series, the target named is T1, recombinant HDAC3 (Homo sapiens, UniProt O15379).
T1 construct: purchased BPS Bioscience Corp
Put plainly: Inhibition of recombinant HDAC enzyme activity (fluorogenic kit), HDAC3. The class given is biochemical. The note with it: mean ± SEM, read-out: IC50 HDAC3 (Class I). An excerpt:
(§1) Fluorogenic HDAC assay kits (BPS Bioscience Corp., San Diego, CA, USA) were used to assess the ability of HDAC inhibitors to inhibit deacetylation of lysine residues on the substrate by recombinant HDAC1, 2, 3, 4, 6, or 8 according to the manufacturer's instructions.

For the next series, the system named is MDA-MB-231 cells. Put plainly: SRB cell proliferation assay, MDA-MB-231. Type of series: cell-based. Conditions: Homo sapiens, read-out: GI50, MDA-MB-231. The protocol:
(§2) Results are shown as mean ± SEM from three independent experiments. […] Cells (1 × 10^4) in 100 μL of medium in 96-well plates were incubated with vehicle (control) or vehicle with test compound for 12 or 24 h. After various treatments, 1 mg/mL of MTT was added and the plates were incubated at 37°C for an additional 2 h, then the cells were pelleted and lysed in 100 μL of dimethyl sulfoxide, and the absorbance at 550 nm was measured on a microplate reader. Cell proliferation was measured by the SRB assay. Cells (1 × 10^4) were incubated for 48 h with the indicated concentrations of test compounds, then were fixed with 10% trichloroacetic acid, stained for 30 min with SRB (0.4% in 1% acetic acid), and washed repeatedly with 1% acetic acid. Protein-bound dye was dissolved in 10 mM Tris base solution and the optical density at 510 nm measured.

In the next series the target is T2, recombinant HDAC6 (Homo sapiens, UniProt Q9UBN7).
T2 construct: purchased BPS Bioscience Corp
T2 sequence (Q9UBN7 1-1215): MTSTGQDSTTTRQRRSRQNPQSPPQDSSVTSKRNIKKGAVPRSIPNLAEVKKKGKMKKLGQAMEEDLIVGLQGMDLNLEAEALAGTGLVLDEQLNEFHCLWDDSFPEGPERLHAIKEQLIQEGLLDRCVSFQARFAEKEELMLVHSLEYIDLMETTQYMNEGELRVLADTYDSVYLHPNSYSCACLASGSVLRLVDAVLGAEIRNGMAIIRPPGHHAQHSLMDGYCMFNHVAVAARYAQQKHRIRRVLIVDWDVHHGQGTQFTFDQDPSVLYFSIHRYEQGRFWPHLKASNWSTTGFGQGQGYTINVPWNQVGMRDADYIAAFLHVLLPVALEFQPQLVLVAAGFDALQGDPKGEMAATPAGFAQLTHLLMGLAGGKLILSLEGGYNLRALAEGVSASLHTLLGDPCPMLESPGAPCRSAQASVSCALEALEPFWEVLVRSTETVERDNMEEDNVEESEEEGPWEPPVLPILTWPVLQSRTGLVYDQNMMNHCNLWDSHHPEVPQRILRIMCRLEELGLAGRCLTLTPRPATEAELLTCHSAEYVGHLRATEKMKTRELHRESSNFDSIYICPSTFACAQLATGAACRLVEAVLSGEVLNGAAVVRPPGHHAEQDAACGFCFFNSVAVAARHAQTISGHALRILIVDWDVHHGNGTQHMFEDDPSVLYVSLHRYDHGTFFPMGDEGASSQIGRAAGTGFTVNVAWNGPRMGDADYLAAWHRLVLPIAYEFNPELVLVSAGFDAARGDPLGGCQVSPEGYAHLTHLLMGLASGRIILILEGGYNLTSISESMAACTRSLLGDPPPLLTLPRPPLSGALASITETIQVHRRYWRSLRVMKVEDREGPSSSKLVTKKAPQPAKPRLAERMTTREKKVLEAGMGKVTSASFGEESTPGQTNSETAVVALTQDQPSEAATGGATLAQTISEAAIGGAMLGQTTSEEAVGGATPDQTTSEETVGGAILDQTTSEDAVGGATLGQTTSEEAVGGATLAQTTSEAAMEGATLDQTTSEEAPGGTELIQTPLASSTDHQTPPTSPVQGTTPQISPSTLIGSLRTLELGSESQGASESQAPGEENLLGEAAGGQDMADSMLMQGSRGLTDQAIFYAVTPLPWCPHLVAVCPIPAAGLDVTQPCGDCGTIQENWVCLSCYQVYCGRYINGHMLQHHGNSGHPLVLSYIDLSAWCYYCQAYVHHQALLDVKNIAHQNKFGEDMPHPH
Kind of series: Inhibition of recombinant HDAC enzyme activity (fluorogenic kit), HDAC6. Type of series: biochemical. Conditions: mean ± SEM, read-out: IC50 HDAC6 (Class IIb).
Source text: as §1

Series [1] concerns HDAC (HeLa nuclear extract). On the set-up: method as in PMID 25113875. The note with it: cited from earlier work.
Series [2] is described as follows: SRB cell proliferation assay, normal bone marrow stromal cells HS-5. The note with it: HS-5 normal bone marrow stromal cells, human normal bone marrow stromal cells. Type of series: cell-based. As for the experimental part: as §2
Another series relates to A549 cells. Put plainly: SRB cell proliferation assay, A549. The class given is cell-based. The note with it: Homo sapiens, read-out: GI50, A549. The protocol: as §2
In the next series the test system is HCT116 cells. Put plainly: SRB cell proliferation assay, HCT116. Type of series: cell-based. Conditions: Homo sapiens, read-out: GI50, HCT116. The protocol:
as §2

The subject of series [3] is HIF-1α and VEGF expression in HCT116 cells. Put plainly: CoCl2-induced HIF-1α / VEGF expression in HCT116 cells (western blot, RT-PCR). Type of series: cell-based, human. The note with it: 0.1 μM 24 h, then CoCl2 300 μM 4 h. (Immunoblotting shows a protein as a band on a membrane.)
Procedure: D. Cells were incubated as explained in (C), the levels of hypoxia-inducible factor-1α (HIF-1α), vascular endothelial growth factor (VEGF) mRNA were measured by RT-PCR.
Total RNA was isolated from cells using TRIzol reagent (Invitrogen). Single-strand cDNA for a polymerase chain reaction (PCR) template was synthesized from 5 μg of total RNA using random primers and Moloney murine leukemia virus reverse transcriptase (Promega). […] Equal amounts (1 μg) of each reverse-transcription product were PCR-amplified using Taq polymerase and 35 cycles of 1 min at 95°C, 1 min at 58°C, and 1 min at 72°C. The amplified cDNA was run on 1% agarose gels and visualized under UV light following staining with SYBR Safe DNA gel stain (Invitrogen).
Cells (1 × 10^6) were incubated for 10 min at 4°C in lysis buffer (20 mM HEPES, pH 7.4, 2 mM EGTA, 50 mM β-glycerophosphate, 0.1% Triton X-100, 10% glycerol, 1 mM DTT, 1 μg/mL of leupeptin, 5 μg/mL of aprotinin, 1 mM phenylmethylsulfonyl fluoride, and 1 mM sodium orthovanadate), were scraped off, incubated on ice for an additional10 min, and centrifuged at 17, 000 g for 30 min at 4°C. Protein samples (80 μg) were then electrophoresed on sodium dodecyl sulfate polyacrylamide gels (SDS-PAGE) and transferred onto a nitrocellulose membrane, which was then blocked by incubation for 30 min at room temperature with 5% fat-free milk in phosphate-buffered saline (PBS). Immunoblotting was performed by overnight incubation at 4°C with primary antibodies in PBS, followed by incubation for 1 h at room temperature with HRP-conjugated secondary antibodies. Bound antibodies were measured using ECL reagent (Advansta Corp., Menlo Park, CA, USA) and exposure to photographic film.
Series [4] has as its system total HDAC activity in HCT116 cells. Kind of series: Total HDAC enzymatic activity assay in treated HCT116 cells. The class given is cell-based. Conditions: Homo sapiens, read-out: HDAC inhibitory IC50 in HCT116 cells (total HDAC enzyme activity). As for the experimental part: B. HCT116 cells (1 × 10^6) treated as explained in (A), whole-cell extracts were subjected to western blotting for the indicated proteins. Quantitative analysis of acetyl-histone H3 C. and acetyl-α-tubulin D. expression in western blot were determined by ImageQuant (Molecular Dynamics, USA). E. Immunohistochemical analysis of the HDAC1, 2 and 6 expression of a tissue microarray containing normal colon tissues and tumor tissue derived from patients with colon adenocarcinoma. Scale bars are indicated. […] Total cell lysates were collected and the total HDAC enzyme activity was analyzed using HDAC activity fluorometric assay kit (Cat No. K330–100; BioVision, Milpitax, CA, USA).

Another series has as its target T3, recombinant HDAC2 (Homo sapiens, UniProt Q92769).
T3 construct: purchased BPS Bioscience Corp
Kind of series: Inhibition of recombinant HDAC enzyme activity (fluorogenic kit), HDAC2. The class given is biochemical. Conditions: mean ± SEM, read-out: IC50 HDAC2 (Class I).
Source text: as §1

The subject of the next series is HCT116 xenograft tumor. Put plainly: HCT116 xenograft model. Conditions: 15 mg/kg. The class given is in vivo, nude mice. As for the experimental part:
Figure 5 The effect of MPT0G157 in HCT116 xenograft model Mice bearing established HCT116 tumors (~100 mm^3) were divided into three group (n = 5) and dosed as Materials and Methods. The tumor volumes A. and body weight B. of mice were measured. Results are mean ± SEM. **p < 0.01 versus control group.
HCT116 cells were implanted subcutaneously into four week old male nude mice. When the tumors reached the average volume of 100 mm^3, the mice were randomly divided into three groups (n = 5) and then were treated with the vehicle (1% carboxymethyl cellulose + 0.5% Tween 80, 0.2 mL/mouse), MPT0G157 (15 mg/kg) by intravenously injection five on two off in the first week and intraperitoneal injection in the other weeks. The length (L) and width (W) of the tumor were measured by caliper every 3 to 4 days, and the tumor volume was calculated as L × W^2/2.

In series [5] the test system is inflammatory factors NO, TNF-α, IL-6, PGE2. On the set-up: method as in PMID 25113875. The note with it: cited from earlier work.
The target of another series is T4, recombinant HDAC1 (Homo sapiens, UniProt Q13547).
T4 construct: purchased BPS Bioscience Corp
Kind of series: Inhibition of recombinant HDAC enzyme activity (fluorogenic kit), HDAC1. The class given is biochemical. Conditions: mean ± SEM, read-out: IC50 HDAC1 (Class I).
Source text: as §1

In the next series the target is T5, recombinant HDAC4 (Homo sapiens, UniProt P56524).
T5 construct: purchased BPS Bioscience Corp
Put plainly: Inhibition of recombinant HDAC enzyme activity (fluorogenic kit), HDAC4. The class given is biochemical. The note with it: mean ± SEM, read-out: IC50 HDAC4 (Class IIa).
Source text: as §1

In series [6] the test system is matrigel-induced angiogenesis. Kind of series: In vivo matrigel plug angiogenesis assay. On the set-up: species or system nude mice. Conditions: 0.1 and 1 μM in matrigel, seven days, versus control group. The source says:
A. After seven days, the animals were sacrificed and the plugs were excised from the mice and photographed. Scale bar represents 0.5 cm. B. Sections of H&E, Masson's trichrome stained and CD31 stained matrigel plugs were examined by light microscopy under 200 × magnification. Scale bar = 100 μm. C. Quantification of the hemoglobin contents of matrigel plugs by spectrophotometer measured at 540 nm. Data represent the mean ± SEM. *p < 0.05 and ***p < 0.001 versus control group.
Six-week-old female nude mice were divided into four groups with three animals in each group. Mice were injected subcutaneously into the abdomens with matrigel (BD Bioscience) mixed with PBS or angiogenic factors (40 ng/ml) with/without MPT0G157 (0.1 μM and 1 μM). After seven days, the animals were sacrificed and the plugs were carefully dissected and photographed, the plugs were performed hematoxylin and eosin (H&E), Masson's trichrome stain and CD31 staining. To quantify the blood vessel formation, hemoglobin content was analyzed by Drabkin's reagent kit (Sigma Chemical, St. Louis, MO).

A further series has as its system AsPC-1 cells. Kind of series: SRB cell proliferation assay, AsPC-1. Conditions: Homo sapiens, read-out: GI50, AsPC-1. Type of series: cell-based. The protocol:
as §2

The target of a further series is T6, recombinant HDAC8 (Homo sapiens, UniProt Q9BY41).
T6 construct: purchased BPS Bioscience Corp
T6 sequence (Q9BY41 1-377): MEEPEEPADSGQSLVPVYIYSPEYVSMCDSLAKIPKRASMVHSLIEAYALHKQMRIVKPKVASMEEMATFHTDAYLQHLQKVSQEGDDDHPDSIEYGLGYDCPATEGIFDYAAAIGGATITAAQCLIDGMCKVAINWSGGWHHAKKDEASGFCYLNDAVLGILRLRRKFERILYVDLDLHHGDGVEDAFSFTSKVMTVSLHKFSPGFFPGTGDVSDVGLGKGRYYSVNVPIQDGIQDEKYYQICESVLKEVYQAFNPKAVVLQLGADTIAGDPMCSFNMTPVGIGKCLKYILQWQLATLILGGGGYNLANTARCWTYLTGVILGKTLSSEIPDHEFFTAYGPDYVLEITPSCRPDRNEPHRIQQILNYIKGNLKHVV
Put plainly: Inhibition of recombinant HDAC enzyme activity (fluorogenic kit), HDAC8. Type of series: biochemical. Conditions: mean ± SEM, read-out: IC50 HDAC8 (Class I).
Source text: as §1

For orientation: IC50 means the midpoint of a concentration-inhibition curve. Usually GI50 stands for the concentration giving 50% growth inhibition.

T5 sequence (P56524 627-1084 limits assumed): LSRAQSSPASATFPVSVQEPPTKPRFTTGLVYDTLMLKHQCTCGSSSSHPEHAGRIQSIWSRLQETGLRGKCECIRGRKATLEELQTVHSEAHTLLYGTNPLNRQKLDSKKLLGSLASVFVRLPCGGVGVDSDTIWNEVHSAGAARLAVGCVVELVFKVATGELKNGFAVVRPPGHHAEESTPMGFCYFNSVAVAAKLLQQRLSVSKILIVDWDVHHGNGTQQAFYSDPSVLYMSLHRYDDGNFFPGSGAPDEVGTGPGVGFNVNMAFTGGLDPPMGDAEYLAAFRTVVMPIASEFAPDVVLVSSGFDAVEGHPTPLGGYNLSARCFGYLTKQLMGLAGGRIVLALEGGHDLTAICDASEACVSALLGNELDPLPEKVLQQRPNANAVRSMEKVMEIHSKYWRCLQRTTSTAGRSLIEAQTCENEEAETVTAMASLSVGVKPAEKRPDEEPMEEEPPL
T3 sequence (Q92769 whole entry): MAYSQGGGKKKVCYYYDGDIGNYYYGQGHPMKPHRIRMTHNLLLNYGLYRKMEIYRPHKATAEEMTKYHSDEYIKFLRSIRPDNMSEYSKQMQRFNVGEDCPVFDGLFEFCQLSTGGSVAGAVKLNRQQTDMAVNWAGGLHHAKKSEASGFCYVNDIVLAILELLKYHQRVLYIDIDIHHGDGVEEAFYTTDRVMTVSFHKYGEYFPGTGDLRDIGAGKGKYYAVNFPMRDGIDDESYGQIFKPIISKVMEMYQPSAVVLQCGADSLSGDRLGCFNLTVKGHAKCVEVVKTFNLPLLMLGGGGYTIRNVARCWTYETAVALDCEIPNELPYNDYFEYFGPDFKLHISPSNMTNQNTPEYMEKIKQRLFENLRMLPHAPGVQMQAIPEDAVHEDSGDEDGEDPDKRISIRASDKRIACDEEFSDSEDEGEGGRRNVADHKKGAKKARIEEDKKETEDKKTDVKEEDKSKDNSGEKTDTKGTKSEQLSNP
T1 sequence (O15379 whole entry): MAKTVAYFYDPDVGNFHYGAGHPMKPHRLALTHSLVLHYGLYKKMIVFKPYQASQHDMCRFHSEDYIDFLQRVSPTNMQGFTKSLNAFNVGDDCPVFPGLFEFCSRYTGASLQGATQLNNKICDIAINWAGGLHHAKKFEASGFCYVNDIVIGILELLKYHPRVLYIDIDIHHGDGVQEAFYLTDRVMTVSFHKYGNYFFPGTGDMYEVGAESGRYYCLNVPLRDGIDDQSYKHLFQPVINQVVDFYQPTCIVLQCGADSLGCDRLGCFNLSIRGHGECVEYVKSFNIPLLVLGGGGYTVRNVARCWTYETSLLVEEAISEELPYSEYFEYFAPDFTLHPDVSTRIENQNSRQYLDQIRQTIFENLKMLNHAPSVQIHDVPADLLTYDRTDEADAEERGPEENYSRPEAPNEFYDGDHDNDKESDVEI
T1 sequence (Q9Y618 395-489 partner limits assumed): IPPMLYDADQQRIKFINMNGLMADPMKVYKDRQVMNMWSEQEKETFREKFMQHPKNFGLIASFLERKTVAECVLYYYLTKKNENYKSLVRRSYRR
T4 sequence (Q13547 whole entry): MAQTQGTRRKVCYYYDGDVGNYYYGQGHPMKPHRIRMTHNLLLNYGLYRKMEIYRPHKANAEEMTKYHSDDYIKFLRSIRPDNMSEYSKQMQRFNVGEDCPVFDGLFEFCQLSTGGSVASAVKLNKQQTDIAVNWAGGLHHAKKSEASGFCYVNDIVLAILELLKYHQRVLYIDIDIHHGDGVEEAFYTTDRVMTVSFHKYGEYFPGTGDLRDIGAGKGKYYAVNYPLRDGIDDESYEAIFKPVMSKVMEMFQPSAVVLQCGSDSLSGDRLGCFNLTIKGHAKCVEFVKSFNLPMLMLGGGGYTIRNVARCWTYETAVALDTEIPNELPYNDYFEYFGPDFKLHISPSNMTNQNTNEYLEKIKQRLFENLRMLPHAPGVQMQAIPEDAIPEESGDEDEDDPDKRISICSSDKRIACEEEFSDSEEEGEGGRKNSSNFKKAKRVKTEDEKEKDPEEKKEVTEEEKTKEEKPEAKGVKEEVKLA

With `Cc1[nH]c2ccccc2c1CCNS(=O)(=O)c1ccc(C=CC(=O)NO)cc1` [MPT0G157, N-hydroxy-3-{4-[2-(2-methyl-1H-indol-3-yl)-ethylsulfamoyl]-phenyl}-acrylamide], the concentration for half-maximal inhibition (IC50) on recombinant HDAC3 was 9.36 ± 0.7 nM; on recombinant HDAC6 it was 14.3 ± 0.77 nM; in series [1] (HeLa nuclear extract as the HDAC source, read-out: IC50 for inhibition of HDAC activity) it was 2.8 ± 0.2 nM; in [4] (HCT-116, HCT116 cells treated 24 h), 470 ± 140 nM; on recombinant HDAC2, 5.13 ± 0.67 nM; at recombinant HDAC1 it was 7.69 ± 1.84 nM. Further, the half-maximal inhibitory concentration (IC50) on recombinant HDAC4 and at recombinant HDAC8 was over 1000 nM each time. The GI50 came to 47 ± 7 nM in the series on MDA-MB-231 cells (MDA-MB-231, SRB assay, 48 h); 307 ± 36 nM with A549 cells (A549, SRB assay, 48 h); 29 ± 2 nM in the series on HCT116 cells (HCT-116, SRB assay, 48 h); 103 ± 17 nM with AsPC-1 cells (ASPC1, SRB assay, 48 h). For the same molecule, in [1] (compared with PXD101), the “HDAC inhibition, fold compared with PXD101” value is 9.4 fold. For the same molecule, the GI50 at 48 h in series [2] is over 100000 nM. Further, the “CoCl2-induced HIF-1α protein expression” value in series [3] (HCT116) is given as “markedly inhibited”. In addition, in [3] (HCT116, RT-PCR), the “CoCl2-induced VEGF mRNA expression” value is “markedly inhibited”. Further, the “HIF-1α mRNA levels” value in series [3] (HCT116, RT-PCR) is “did not reduce”. The “body weight loss during treatment” value in the series with HCT116 xenograft tumor (HCT116 xenograft mice) is recorded as “no significant differences in weight loss”. Further, the “percent of tumor growth inhibition (TGI)” value in the series on HCT116 xenograft tumor (i.v. first week then i.p., nude mice with HCT116 tumors) amounted to 50.7%. The “suppression of inflammatory factor activities, fold compared with PXD101” value in series [5] is listed as 3.0–25.1 fold. Moreover, in series [6], the “angiogenic response (hemoglobin content of matrigel plugs)” value is on record as “significantly suppressed the angiogenic response”.

In the case of `O=C(/C=C/c1cccc(S(=O)(=O)Nc2ccccc2)c1)NO` [PXD101, reference compound], the GI50 in the series on MDA-MB-231 cells (MDA-MB-231, 48 h) is 241 ± 2 nM; in the series with A549 cells (A549, 48 h) it was over 1000 nM; in the series with HCT116 cells (HCT-116, 48 h), 90 ± 12 nM; in the series with AsPC-1 cells (ASPC1, 48 h) it was over 1000 nM. In addition, the IC50 came out at 80.3 ± 8.69 nM on recombinant HDAC6; 10300 ± 2250 nM in series [4] (HCT-116, 24 h); 161 ± 2.36 nM at recombinant HDAC4.

Take `O=C(CCCCCCC(=O)Nc1ccccc1)NO` [SAHA]: the GI50 with MDA-MB-231 cells (MDA-MB-231, 48 h) was 745 ± 43 nM; in the series with A549 cells (A549, 48 h), over 1000 nM; with HCT116 cells (HCT-116, 48 h) it was 411 ± 37 nM; in the series on AsPC-1 cells (ASPC1, 48 h) it was over 1000 nM.
